# Measurements reported in patent US10308911B2, “Methods for generating the inner ear and other cranial placode-derived tissues using pluripotent stem cells” (Indiana University Research & Technology Corporation, priority 2012, dated 2019).
# “Also recorded” adds a separate entry of the source.
# B1: BMP4: recombinant human BMP4 (bone morphogenetic protein), 10 ng/mL; Stemgent (protein, UniProt P12644 293-408, looked up)
# Bone morphogenetic protein 4: SPKHHSQRARKKNKNCRRHSLYVDFSDVGWNDWIVAPPGYQAFYCHGDCPFPLADHLNSTNHAIVQTLVNSVNSSIPKACCVPTELSAISMLYLDEYDKVVLKNYQEMVVEGCGCR
# Experiments:
# Type in all cases: cell-based, mouse
# ESC aggregates [1] = assay: Otic placode and otic vesicle induction (Pax2/Pax8/Ecad expression, vesicle counts)
# Method: On day 8 of differentiation, cell aggregates are transferred to 24 well plates (Lipidure Coat, NOF; 4-8 aggregates per well) in N2 Medium containing 1% MATRIGEL™ (a gelatinous protein mixture secreted by Engelbreth-Holm-Swarm (EHS) mouse sarcoma cells) (v/v). N2 Medium contains Advanced DMEM/F12, 1×N2 Supplement, 1 mM Penicillin/Streptomycin or 50 μg/mL Normocin (Invivogen) and 1 mM GlutaMax.
# (§1) The following small molecules and recombinant proteins were used: recombinant human BMP4 (10 ng/mL; Stemgent), human FGF2 (25 ng/mL; Peprotech), XAV939 (1 μM; Santa Cruz), SU5402 (10 μM; BioVision), SB-431542 (1 μM; Tocris Bioscience), and LDN-193189 (100 nM; Stemgent).
# (§2) RNA was isolated using the RNeasy Minikit (Qiagen) and treated with TURBO DNase (Ambion). Single-stranded cDNA was synthesized using Omniscript reverse transcriptase (Qiagen) and Oligo-dT primers. All amplicons had standardized sizes of 100-110 bps. cDNA samples were amplified on an ABI PRISM 7900HT Sequence Detection System (Applied Biosystems) using the SYBR Green PCR Master Mix (Applied Biosystems). For each PCR reaction, a mixture containing cDNA template (5 ng), Master Mix, and forward and reverse primers (400 nM each) was treated with uracil N-glycosylase at 50° C. for 2 min before undergoing the following program: 1 cycles, 95° C., 10 min; 45 cycles, 95° C., 15 sec, 60° C., 1 min; 1 cycles, 95° C., 15 sec, 60° C., 15 sec, 95° C., 15 sec; 72° C., hold. Melting curve analysis was performed to confirm the authenticity of the PCR product. The mRNA level for each gene was calculated relative to L27 mRNA expression.
# The percentage of epithelial cells expressing Pax8/Ecad was established by analyzing serial sections of day 6 and 8 aggregates. Data are representative of 6-8 aggregates from at least 3 separate experiments. For analysis of each aggregate, 5 cryosections were chosen at random positions along the z-axis of the aggregate. Using Nikon Elements or NIH ImageJ software, the Ecad^+ outer-epithelium was outlined and cell counting of DAPI and Pax8^+ nuclei along the length of the epithelium established a percentage for each cryosection.
# Similarly, the number of Myo7a^+ hair cells in each day 20 aggregate was determined by analyzing 10 μm serial cryosections. Each biological sample represents the average number of hair cells counted in 4-6 cell aggregates and data are representative of the average from 3 separate experiments (15 aggregates total for each condition). Odd and even numbered cryosections were analyzed separately and averaged to avoid double counting. The number of vesicles was quantified similarly, but every third section was analyzed to avoid double counting and allow for analysis of three separate staining combinations. Vesicles with a long axis diameter larger than 30 μm were accounted for to avoid double counting.
# ESC aggregates [2] = assay: Pre-placodal ectoderm induction in BMP/SB aggregates (marker expression, epithelial thickness)
# Method: On day 4-5, the differentiation medium is replaced with differentiation medium containing FGF2 in a final concentration range of about 5 ng/ml to about 100 ng/ml (with a preferred final concentration of about 25 ng/mL) or another FGF selected from FGF 1-FGF23), and a BMP inhibitor. In some embodiments, the BMP inhibitor is LDN-193189 (CAS No. 1062368-24-4 at about 100 nM). Alternatively, DMH1 (CAS No. 1206711-16-1) or Dorsomorphin (CAS No. […]) can be used as the BMP inhibitor were added to each well at 6× concentration in 25 μL of fresh media. The extracellular matrix protein concentration (e.g., MATRIGEL™ (a gelatinous protein mixture secreted by Engelbreth-Holm-Swarm (EHS) mouse sarcoma cells) at 2% (v/v)) is maintained throughout days 1-8. Culture of the non-neural ectoderm cells under these conditions yields preplacodal ectoderm, epithelium characterized by expression of at least one of Dlx3, Dlx5, Pax2, Pax8 and Eya1. The concentration of MATRIGEL™ (a gelatinous protein mixture secreted by Engelbreth-Holm-Swarm (EHS) mouse sarcoma cells) or another extracellular matrix protein, as mentioned herein, is maintained at 2% (v/v) throughout days 1-8.
# as §1, §2
# Aggregates were fixed with 4% paraformaldehyde. […]
# The apparent thickness of epithelia was determined by analyzing cryosections stained with Ncad (Control) or Ecad antibodies (all other conditions) on days 3-6. […] For each aggregate, 3 serial sections were analyzed. Five points along the epithelium were randomly chosen and the thickness was measured using Nikon Elements image analysis tools.
# ESC aggregates [3] = assay: Non-neural ectoderm induction in SFEBq 3D culture (qPCR, immunostaining)
# Method: In an exemplary embodiment using mES cells, during days 0-3, serum-free floating culture of embryoid body-like aggregate with quick reaggregation (SFEBq) to generate EBs is initiated by dissociation of adherent mES cells into a cell suspension by trypsinization (e.g., with 0.25% Trypsin-EDTA, and resuspended in “Differentiation Medium”. Differentiation Medium is composed of Glasgow Minimal Essential Medium (G-MEM) supplemented with 1.5% knockout serum replacement (KSR; Invitrogen), 0.1 mM non-essential amino acids, 1 mM sodium pyruvate, 1 mM Penicillin/Streptomycin and 1 mM 2-mercaptoethanol. Cells are then plated in 100 μl/well in a range of about 1,000-15,000 cells, but preferably about 3000 cells, a in 96-well low cell adhesion U-bottom plates. On day 1, half of the medium in each well is exchanged for fresh Differentiation Medium containing an extracellular matrix protein, e.g., MATRIGEL™ (a gelatinous protein mixture secreted by Engelbreth-Holm-Swarm (EHS) mouse sarcoma cells) (2% v/v final concentration), laminin (50-400 μg/ml), or laminin plus entactin (50-400 μg/ml each).
# On day 3 after initiating formation of EBs, a BMP, e.g., BMP2, BMP4, or BMP7 and a TGFβ inhibitor are added to the culture medium. The concentration of BMP, e.g., BMP4, to be used in the method can range from at least about 1 ng/ml to about 50 ng/ml, e.g., about 2 ng/ml, 4 ng/ml, 5 ng/ml, 7 ng/ml, 12 ng/ml, 15 ng/ml, 20 ng/ml, 25 ng/ml, 32 ng/ml, 40 ng/ml, or another concentration of a BMP from at least about 1 ng/ml to about 50 ng/ml. In some embodiments, the BMP to be used is BMP4 at a concentration of about 10 ng/ml. BMP 4. In some embodiments, the TGFβ inhibitor to be used is SB 431542 (CAS No. 301836-41-9, at a final concentration of about 1 μM). Alternatively, any of the following TGFβ inhibitors may be used: A 83-01 (CAS No. 909910-43-6), GW 788388 (CAS No. 452342-67-5), LY 364947 (CAS No. 396129-53-6), RepSox (CAS No. 446859-33-2), SB 505124 (CAS No. 694433-59-5), SB 525334 (CAS No. 356559-20-1), or SD 208 (CAS No. […]) at a concentration of about 0.1 μM to about 5 μM.
# as §1
# RNA was isolated using the RNeasy Minikit (Qiagen) and treated with TURBO DNase (Ambion). Single-stranded cDNA was synthesized using Omniscript reverse transcriptase (Qiagen) and Oligo-dT primers. […] The mRNA level for each gene was calculated relative to L27 mRNA expression. […]
# [4] = qPCR of day 5 samples, 10 ng/mL BMP vs vehicle control
molecule,measurement,setting,value
Cc1c[nH]c(-c2cnc(NCCNc3ccc(C#N)cn3)nc2-c2ccc(Cl)cc2Cl)n1 [CHIR99021],abundance of Pax2/Ecad+ vesicles with a luminal diameter greater than 50 μm (large vesicles),"ESC aggregates [1]; CHIR99021 3 μM days 8-10, read on day 12",higher abundance
FGF: recombinant human FGF2 (25 ng/mL; Peprotech),Pax8 expression versus FGF dosage,"ESC aggregates [1]; qPCR, n=4, 25, 50 and 100 ng/mL not significantly different",dependent on FGF dosage
"c1ccc2c(-c3cnn4cc(-c5ccc(N6CCNCC6)cc5)cnc34)ccnc2c1 [LDN, LDN-193189]",Sox1 expression after LDN treatment,ESC aggregates [2]; BMP/SB aggregates,does not induce
same,Dlx3 expression in BMP/SB aggregates after BMP inhibition,ESC aggregates [2]; LDN treatment on day 4.5,maintained expression of Dlx3
same,Dlx3 expression after LDN treatment,ESC aggregates [2]; treatment on or before day 4,suppresses
Cc1c[nH]c(/C=C2\C(=O)Nc3ccccc32)c1CCC(=O)O [SU5402],epithelial thickening,ESC aggregates [2]; SU5402 (10 μM) following BMP/SB-LDN treatment,abolishes epithelial thickening
Oc1nc(-c2ccc(C(F)(F)F)cc2)nc2c1CSCC2 [XAV939],number of prosensory vesicles,"ESC aggregates [1]; XAV939 (1 μM) from day 8-10, vesicles counted on day 12",significantly decreased; also recorded: decreases
same,prevalence of Pax2+ vesicles,ESC aggregates [1]; XAV939 from day 8-10,reduced
same,generation of otic vesicles following BMP/SB-FGF/LDN treatment,ESC aggregates [1]; XAV939 on days 8-10,blocked
"NC(=O)c1ccc(-c2nc(-c3ccc4c(c3)OCO4)c(-c3ccccn3)[nH]2)cc1 [SB, SB-431542]",level of brachyury expression induced by BMP,"ESC aggregates [3]; SB added to BMP, n=3",decreases
B1,brachyury+ cells in aggregates,"ESC aggregates [3]; day 5, BMP-treated aggregates",60.8±3.9%
same,neuroectoderm marker Sox1 expression,ESC aggregates [3]; [4],downregulated
same,non-neural ectoderm marker Dlx3 expression,ESC aggregates [3]; [4],upregulated
